Organism: Rattus norvegicus
Assay: DrugMatrix - Regimen: Daily Repeat
Assay type: toxicity, organism-based, Sprague-Dawley
Parameters: regimen Daily Repeat, gender Male, age 6-8 weeks
Settings: in vivo, po, route oral GAVAGE, […]; for ALKALINE PHOSPHATASE / ASPARTATE AMINOTRANSFERASE / BLOOD UREA NITROGEN / CARBON DIOXIDE / CHLORIDE / CHOLESTEROL / CREATINE PHOSPHOKINASE / CREATININE / GLUCOSE / LACTATE DEHYDROGENASE / LIPASE / PHOSPHORUS / POTASSIUM / SODIUM / TOTAL BILIRUBIN / TOTAL PROTEIN / URIC ACID / ALANINE AMINOTRANSFERASE / ALBUMIN: tissue Plasma; for BASOPHIL / EOSINOPHIL / ERYTHROCYTE COUNT / HEMATOCRIT / HEMOGLOBIN / LEUKOCYTE COUNT / LYMPHOCYTE / MEAN CORPUSCULAR HEMOGLOBIN / MEAN CORPUSCULAR HEMOGLOBIN CONCENTRATION / MEAN CORPUSCULAR VOLUME / MONOCYTE / NEUTROPHIL / PLATELET COUNT / ABSOLUTE BASOPHIL / ABSOLUTE EOSINOPHIL / ABSOLUTE LYMPHOCYTE / ABSOLUTE MONOCYTE / ABSOLUTE SEGMENTED NEUTROPHIL / NUCLEATED RED BLOOD CELLS: tissue Blood
[1] = 23 mg/kg, 120 h, dose level Low, time 5 day
[2] = 23 mg/kg, dose level High, time 28 day
[3] = 64 mg/kg, 72 h, dose level M1, time 3 day
[4] = 64 mg/kg, 120 h, dose level M1, time 5 day

Compound: CC1=C(CC(=O)O)c2cc(F)ccc2/C1=C\c1ccc([S+](C)[O-])cc1 (stereo unspecified)
- ALKALINE PHOSPHATASE [1]: 330 u/L
- ASPARTATE AMINOTRANSFERASE [1]: 79.33 u/L
- BLOOD UREA NITROGEN [1]: 14.33 mg/dL
- CARBON DIOXIDE [1]: 29.33 mmol/L
- CHLORIDE [1]: 100.67 MEQ/L
- CHOLESTEROL [1]: 85 mg/dL
- CREATINE PHOSPHOKINASE [1]: 210.67 u/L
- CREATININE [1]: 0.2 mg/dL
- GLUCOSE [1]: 156 mg/dL
- LACTATE DEHYDROGENASE [1]: 80 u/L
- LIPASE [1]: 11.67 u/L
- PHOSPHORUS [1]: 10.87 mg/dL
- POTASSIUM [1]: 5.36 MEQ/L
- SODIUM [1]: 146.07 MEQ/L
- TOTAL BILIRUBIN [1]: 0.17 mg/dL
- TOTAL PROTEIN [1]: 6.1 G/DL
- URIC ACID [1]: 0.77 mg/dL
- BASOPHIL [2]: 0.35%
- EOSINOPHIL [2]: 0.51%
- ERYTHROCYTE COUNT [2]: 8.35 x10E6/uL
- HEMATOCRIT [2]: 50.37%
- HEMOGLOBIN [2]: 16.23 G/DL
- LEUKOCYTE COUNT [2]: 13.2 x10E3/uL
- LYMPHOCYTE [2]: 85.99%
- MEAN CORPUSCULAR HEMOGLOBIN [2]: 19.47 pg
- MEAN CORPUSCULAR HEMOGLOBIN CONCENTRATION [2]: 32.25 G/DL
- MEAN CORPUSCULAR VOLUME [2]: 60.4 fL
- MONOCYTE [2]: 1.36%
- NEUTROPHIL [2]: 10.23%
- PLATELET COUNT [2]: 1228.2 x10E3/uL
- ALANINE AMINOTRANSFERASE [2]: 29 u/L
- ALBUMIN [2]: 3.94 G/DL
- ALKALINE PHOSPHATASE [2]: 227.1 u/L
- ASPARTATE AMINOTRANSFERASE [2]: 60.9 u/L
- BLOOD UREA NITROGEN [2]: 12.3 mg/dL
- CHLORIDE [2]: 106.6 MEQ/L
- CHOLESTEROL [2]: 55 mg/dL
- CREATINE PHOSPHOKINASE [2]: 162.4 u/L
- CREATININE [2]: 0.52 mg/dL
- GLUCOSE [2]: 134.2 mg/dL
- PHOSPHORUS [2]: 11.59 mg/dL
- POTASSIUM [2]: 6.38 MEQ/L
- SODIUM [2]: 153.3 MEQ/L
- TOTAL BILIRUBIN [2]: 0.22 mg/dL
- TOTAL PROTEIN [2]: 6.6 G/DL
- ABSOLUTE BASOPHIL [3]: 0 CELLS/uL
- ABSOLUTE EOSINOPHIL [3]: 0 CELLS/uL
- ABSOLUTE LYMPHOCYTE [3]: 23014.33 CELLS/uL
- ABSOLUTE MONOCYTE [3]: 921.67 CELLS/uL
- ABSOLUTE SEGMENTED NEUTROPHIL [3]: 4264 CELLS/uL
- BASOPHIL [3]: 0%
- EOSINOPHIL [3]: 0%
- ERYTHROCYTE COUNT [3]: 5.01 x10E6/uL
- HEMATOCRIT [3]: 31.37%
- HEMOGLOBIN [3]: 12.4 G/DL
- LEUKOCYTE COUNT [3]: 28.2 x10E3/uL
- LYMPHOCYTE [3]: 80.67%
- MEAN CORPUSCULAR HEMOGLOBIN [3]: 24.8 pg
- MEAN CORPUSCULAR HEMOGLOBIN CONCENTRATION [3]: 39.53 G/DL
- MEAN CORPUSCULAR VOLUME [3]: 62.6 fL
- MONOCYTE [3]: 3.33%
- NEUTROPHIL [3]: 16%
- NUCLEATED RED BLOOD CELLS [3]: 0 /100WBC
- PLATELET COUNT [3]: 1053 x10E3/uL
- ALANINE AMINOTRANSFERASE [3]: 55.67 u/L
- ALBUMIN [3]: 3.33 G/DL
- ALKALINE PHOSPHATASE [3]: 252 u/L
- ASPARTATE AMINOTRANSFERASE [3]: 68 u/L
- BLOOD UREA NITROGEN [3]: 9 mg/dL
- CARBON DIOXIDE [3]: 22.33 mmol/L
- CHLORIDE [3]: 105 MEQ/L
- CHOLESTEROL [3]: 84.33 mg/dL
- CREATINE PHOSPHOKINASE [3]: 173.33 u/L
- CREATININE [3]: 0.16 mg/dL
- GLUCOSE [3]: 162.67 mg/dL
- LACTATE DEHYDROGENASE [3]: 160.33 u/L
- LIPASE [3]: 10.33 u/L
- PHOSPHORUS [3]: 9.7 mg/dL
- POTASSIUM [3]: 6.43 MEQ/L
- SODIUM [3]: 144.3 MEQ/L
- TOTAL BILIRUBIN [3]: 0.17 mg/dL
- TOTAL PROTEIN [3]: 5.17 G/DL
- URIC ACID [3]: 1.37 mg/dL
- ABSOLUTE BASOPHIL [4]: 0 CELLS/uL
- ABSOLUTE EOSINOPHIL [4]: 0 CELLS/uL
- ABSOLUTE LYMPHOCYTE [4]: 11762.67 CELLS/uL
- ABSOLUTE MONOCYTE [4]: 305.67 CELLS/uL
- ABSOLUTE SEGMENTED NEUTROPHIL [4]: 2898.33 CELLS/uL
- BASOPHIL [4]: 0%
- EOSINOPHIL [4]: 0%
- ERYTHROCYTE COUNT [4]: 4.62 x10E6/uL
- HEMATOCRIT [4]: 30.03%
- HEMOGLOBIN [4]: 11.8 G/DL
- LEUKOCYTE COUNT [4]: 14.97 x10E3/uL
- LYMPHOCYTE [4]: 78.67%
- MEAN CORPUSCULAR HEMOGLOBIN [4]: 25.5 pg
- MEAN CORPUSCULAR HEMOGLOBIN CONCENTRATION [4]: 39.3 G/DL
- MEAN CORPUSCULAR VOLUME [4]: 64.87 fL
- MONOCYTE [4]: 2%
- NEUTROPHIL [4]: 19.33%
- NUCLEATED RED BLOOD CELLS [4]: 0 /100WBC
- PLATELET COUNT [4]: 1198 x10E3/uL
- ALANINE AMINOTRANSFERASE [4]: 48.67 u/L
- ALBUMIN [4]: 3.57 G/DL
- ALKALINE PHOSPHATASE [4]: 225.67 u/L
- ASPARTATE AMINOTRANSFERASE [4]: 64.67 u/L
- BLOOD UREA NITROGEN [4]: 11 mg/dL
- CARBON DIOXIDE [4]: 31.67 mmol/L
- CHLORIDE [4]: 101.33 MEQ/L
- CHOLESTEROL [4]: 88.33 mg/dL
- CREATINE PHOSPHOKINASE [4]: 237.33 u/L
- CREATININE [4]: 0.18 mg/dL
- GLUCOSE [4]: 174.67 mg/dL
- LACTATE DEHYDROGENASE [4]: 137.33 u/L
- LIPASE [4]: 10.67 u/L
- PHOSPHORUS [4]: 10.57 mg/dL
- POTASSIUM [4]: 5.08 MEQ/L
- SODIUM [4]: 146.77 MEQ/L
- TOTAL BILIRUBIN [4]: 0.13 mg/dL
- TOTAL PROTEIN [4]: 5.57 G/DL
- URIC ACID [4]: 0.5 mg/dL

Reference: ChEMBL document CHEMBL3885881, “DrugMatrix”
